Laboratory results from ChEMBL document CHEMBL1201862, “PubChem BioAssay data set” (2004).
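96-well plates; 48 h exposure; 5 concentrations. Endpoints by linear interpolation between flanking doses. Not reached: highest tested concentration assigned. At the GI50, growth is halved.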 Activity calls are given as the source filed them. Rule as the data show it: active = GI50 up to about 1.1 µM and inactive = higher.

Experiments:
Experiment in all cases: DTP human tumour cell line panel, 48 h
[1] = system: RXF 393
[2] = system: HCT-116
[3] = system: HL-60
[4] = system: HCC 2998
[5] = system: UO-31
[6] = system: OVCAR-5
[7] = system: NCI-H226
[8] = system: SK-MEL-28
[9] = system: BT-549
[10] = system: IGROV-1
[11] = system: EKVX
[12] = system: UACC-257
[13] = system: COLO 205
[14] = system: NCI-H460
[15] = system: Malme-3M
[16] = system: MCF7
[17] = system: 786-0
[18] = system: TK-10
[19] = system: NCI/ADR-RES
[20] = system: SNB-75

Measured: GI50

CNC(=S)/N=c1/sc(NC)nc2sc3c(c12)CCCC3
inactive: [1] 22.5 µM | [2] > 100 µM | [3] > 100 µM | [4] > 100 µM | [5] > 100 µM | [6] > 100 µM | [7] > 100 µM | [8] > 100 µM | [9] 47.1 µM | [10] > 100 µM | [11] 76.6 µM | [12] > 100 µM | [13] > 100 µM | [14] > 100 µM | [15] > 100 µM | [16] > 100 µM | [17] 38.1 µM | [18] > 100 µM

COc1cc2c(cc1OC)C13CCN4CC5=CCOC(CC(=O)O)C(C5CC41)C3N2 (configuration not stated)
inactive: [2] > 100 µM | [3] > 100 µM | [5] > 100 µM | [6] > 100 µM | [7] > 100 µM | [8] > 100 µM | [9] > 100 µM | [19] > 100 µM | [10] > 100 µM | [11] > 100 µM | [12] > 100 µM | [13] > 100 µM | [14] > 100 µM | [15] > 100 µM | [16] > 100 µM | [17] > 100 µM | [18] > 100 µM

C/C=C1\C(=O)O[C@H]2C/C(C)=C/CC/C(C)=C/CC[C@@]3(C)O[C@@H]3C[C@@H]12
inactive: [1] > 100 µM | [2] > 100 µM | [3] 52 µM | [4] > 100 µM | [5] > 100 µM | [20] > 100 µM | [6] > 100 µM | [8] > 100 µM | [9] 69.5 µM | [19] > 100 µM | [10] 61.1 µM | [11] > 100 µM | [12] > 100 µM | [13] > 100 µM | [14] 46.1 µM | [15] > 100 µM | [16] > 100 µM | [17] > 100 µM | [18] > 100 µM

O=C(c1ccco1)N(C(=O)N1CCN(c2ccccc2)CC1)S(=O)(=O)c1ccccc1
inactive: [2] 21.3 µM | [3] 21.2 µM | [4] 48.4 µM | [5] 21.9 µM | [20] 24.5 µM | [6] 41.6 µM | [7] 26.4 µM | [8] 39.2 µM | [9] 32.7 µM | [19] 23.2 µM | [11] 22.4 µM | [12] 32 µM | [13] 28.4 µM | [14] 32.3 µM | [15] 29 µM | [16] 29.4 µM | [17] 32.1 µM | [18] 33.3 µM

COc1cc2c(c(O)c1O)C(=O)C1CCC(=O)N1C2c1cccc2ccccc12 (configuration not stated)
inactive: [1] 6.28 µM | [2] > 50 µM | [3] > 50 µM | [5] > 50 µM | [20] > 50 µM | [6] > 50 µM | [7] > 50 µM | [8] > 50 µM | [9] > 50 µM | [19] > 50 µM | [10] > 50 µM | [11] > 50 µM | [12] > 50 µM | [13] > 50 µM | [14] > 50 µM | [16] > 50 µM | [17] > 50 µM

C=CC(OC(=O)C(C)C)c1ccc(OC(=O)C(C)C)cc1 (configuration not stated)
inactive: [2] 4.06 µM | [3] 2.92 µM | [4] 13.1 µM | [5] 17.2 µM | [20] 15 µM | [6] 6.5 µM | [7] 20.6 µM | [8] 10.6 µM | [9] 17.4 µM | [19] 14.2 µM | [10] 18.4 µM | [11] 22.4 µM | [12] 14.7 µM | [13] 8.87 µM | [14] 13.9 µM | [15] 7.57 µM | [16] 3.3 µM | [17] 4.69 µM

O=C1OS2(OCc3cccc4cccc2c34)c2ccccc21 (configuration not stated)
inactive: [2] > 100 µM | [3] > 100 µM | [4] > 100 µM | [5] > 100 µM | [20] > 100 µM | [6] > 100 µM | [7] > 100 µM | [8] > 100 µM | [9] > 100 µM | [19] > 100 µM | [10] > 100 µM | [11] > 100 µM | [12] > 100 µM | [13] > 100 µM | [14] > 100 µM | [15] > 100 µM | [16] > 100 µM | [17] > 100 µM | [18] > 100 µM

CCCCCCCCCCCCC(O)C(=O)O (configuration not stated)
inactive: [2] > 100 µM | [3] 98.6 µM | [4] > 100 µM | [5] > 100 µM | [20] > 100 µM | [6] > 100 µM | [9] > 100 µM | [19] > 100 µM | [10] > 100 µM | [12] > 100 µM | [13] > 100 µM | [14] > 100 µM | [15] > 100 µM | [16] > 100 µM | [17] > 100 µM | [18] > 100 µM
